How the values were obtained:
[1] = tested on: EPO production; assay: Secreted EPO (ELISA) in Hep3B cells treated with IL-6; format: cell-based; details: for effect of compound treatment on EPO production in the presence of IL-6: compound plus IL-6
Method: Secreted EPO levels were determined using a commercially available ELISA kit (R&D Systems, catalog no. DEP00). […] As shown in FIGS. 27A and 27B, Hep3B cells treated with IL-6 increased EPO expression slightly above that in non-treated cells. Specifically, EPO levels in control cells was approximately 20 mIU/ml, while that in cells treated with 10 ng/ml IL-6 was approximately 50 mIU/ml.

[2] = tested on: transferrin receptor; assay: Transferrin receptor expression by FACS (CD71-PE antibody) in HepG2 cells; format: cell-based; details: HepG2, 1 day
Method: (§1) The effect of compounds of the invention on transferrin receptor expression was examined as follows. Various cells (Hep3B, HepG2, HK-2) were incubated with compound A or compound B for 1 day. The cells were then analyzed for transferrin receptor expression by FACS analysis using CD71-PE antibody (Ancell, catalog no. 223-050).

[3] = tested on: EPO production; assay: Secreted EPO (ELISA) in Hep3B cells treated with IL-1β; format: cell-based; details: for effect on suppression of EPO production by IL-1β: 2-hour pre-treatment with IL-1β, EPO 3 days after compound addition; for effect on inhibition of EPO production by IL-1β: compound in the presence of IL-1β (0.4-10 ng/ml); for effect on inhibition of EPO production by IL-1β / EPO production: 3 days; for EPO production: various concentrations of compound, absence of IL-1β
Method: (§2) Hep3B cells were treated with various concentrations (0, 0.4, 2, 10 ng/ml) of IL-1β in the absence or presence of compound A or compound B for 3 days. Secreted EPO levels were determined using a commercially available ELISA kit (R&D Systems, catalog no. DEP00). In the absence of compound, treatment of Hep3B cells with IL-1β reduced EPO production in a dose-dependent manner. […] Therefore, inhibitory effects of the inflammatory cytokine IL-1β on EPO production were overcome by inhibition of prolyl hydroxylase activity using compounds and methods of the present invention. […] Further, the methods and compounds of the present invention are useful to increase EPO production and, therefore, to treat anemia in a subject, for example, wherein the subject has a disorder associated with IL-1β such as acute or chronic inflammation or other anemia of chronic disease.
(§3) A series of experiments were performed to examine the effects of compounds of the present invention on EPO production following exposure of cells to the inflammatory cytokine IL-1β (i.e., in cells already exposed to IL-1β). In these experiments, IL-1β signaling would therefore be initiated prior to the addition of a prolyl hydroxylase inhibitor. Hep3B cells were treated with various concentrations (0, 0.4, 2, 10 ng/ml) of IL-1β for 2 hours, after which various concentrations of compound A or compound B were added to the cultured cells. Secreted EPO levels were determined as described above 3 days following compound addition.

[4] = tested on: NRAMP2; assay: NRAMP2 mRNA in small intestine of mice after IV administration (microarray); format: in vivo, mouse; details: 60 mg/kg IV, 4 hours
Method: In another experiment, mRNA was isolated from small intestine harvested 4 hours following IV administration of 60 mg/kg compound A, compound B, and compound C to mice. Probes were prepared from each of two animals from 5 treatment groups, and hybridized to Affymetrix mouse MOE430Aplus2 microarrays (one animal per array). Statistical comparisons of data obtained from arrays from treated versus non-treated animals was performed. […] Expression levels are shown as fold-induction over control, untreated animals for each expressed gene.

[5] = tested on: healthy human volunteers; assay: Erythropoiesis and iron status in healthy human volunteers; format: in vivo; details: human subjects; for soluble transferrin receptor levels, maximum response: day 21
From the text: The effect of prolyl hydroxylase inhibition on erythropoiesis in human subjects was examined as follows. […] At various times following compound administration, blood was drawn for analysis of EPO, hemoglobin, hematocrit, red blood cell counts, soluble transferrin receptor, and serum ferritin levels.

[6] = tested on: EPO production; assay: Secreted EPO (ELISA) in Hep3B cells treated with TNF-α; format: cell-based; details: for effect on suppression of EPO production by TNF-α: 2-hour pre-treatment with TNF-α, EPO 3 days after compound addition; for effect on inhibition of EPO production by TNF-α: compound in the presence of TNF-α (0.4-10 ng/ml); for effect on inhibition of EPO production by TNF-α / EPO production: 3 days; for EPO production: various concentrations of compound, absence of TNF-α
Method: as §2, with “ng/ml) of TNF-α in the” for “ng/ml) of IL-1β in the”, “cells with TNF-α reduced EPO” for “cells with IL-1β reduced EPO”, “inflammatory cytokine TNF-α on EPO” for “inflammatory cytokine IL-1β on EPO”, “associated with TNF-αQ such as” for “associated with IL-1β such as”
as §3, with “TNF-α” for “IL-1β”, “TNF-α).” for “IL-1β).”

[7] = tested on: transferrin receptor; assay: Transferrin receptor expression by FACS (CD71-PE antibody) in Hep3B cells; format: cell-based; details: 1 day
Method: as §1

[8] = tested on: transferrin receptor; assay: Transferrin receptor expression by FACS (CD71-PE antibody) in HK-2 cells; format: cell-based; details: HK-2, 1 day
Method: as §1

[9] = 10 µM compound, absence of IL-6
[10] = compound in the presence of 10 ng/ml IL-6

Structure (SMILES)	EPO levels [1, 9]	EPO levels [1, 10]	effect of compound treatment on EPO production in the presence of IL-6 [1]	EPO levels ([1]; compound without IL-6)	Mean FL (transferrin receptor) [2]	effect on suppression of EPO production by IL-1β [3]	effect on inhibition of EPO production by IL-1β [3]	EPO production [3]	NRAMP2 mRNA expression in small intestine [4]	red blood cell count ([5]; 20 mg/kg twice weekly or three-times per week)	soluble transferrin receptor levels, maximum response ([5]; 2-times per week)	soluble transferrin receptor levels, maximum response ([5]; 3-times per week)	decrease of serum ferritin levels ([5]; oral 20 mg/kg)	Reticulocyte levels ([5]; oral 20 mg/kg twice or three-times weekly)	hematocrit levels ([5]; twice weekly for three weeks)	effect on suppression of EPO production by TNF-α [6]	effect on inhibition of EPO production by TNF-α [6]	EPO production [6]	Mean FL (transferrin receptor) [7]	Mean FL (transferrin receptor) [8]
O=C(O)CNC(=O)c1nc(Cl)c2ccccc2c1O [Compound A, [(1-Chloro-4-hydroxy-isoquinoline-3-carbonyl)-amino]-acetic acid]	approximately 60 mIU/ml	approximately 270 mIU/ml	synergistic	increased EPO levels in a dose-dependent manner	56.52	overcame the suppressive effects of IL-1 on EPO production	greatly reduced the inhibitory effects of IL-1β on EPO production	dose-dependent increase in EPO production	increasing expression of NRAMP2 in intestine	increased red blood cell count in human subjects	35%	31%	approximately 46%	> 1.7 % of red blood cells	greater than 46%	overcame the suppressive effects of TNF-α on EPO production	greatly reduced the inhibitory effects of TNF-α on EPO production	dose-dependent increase in EPO production	40.89	12.20
O=C(O)CNC(=O)c1ncc2cc(Oc3ccccc3)ccc2c1O [Compound B, [(4-Hydroxy-7-phenoxy-isoquinoline-3-carbonyl)-amino]-acetic acid]	~220 mIU/ml	greater than 400 mIU/ml	synergistic	increased EPO levels in a dose-dependent manner	53.53	overcame the suppressive effects of IL-1 on EPO production	greatly reduced the inhibitory effects of IL-1β on EPO production	dose-dependent increase in EPO production	increasing expression of NRAMP2 in intestine							overcame the suppressive effects of TNF-α on EPO production	greatly reduced the inhibitory effects of TNF-α on EPO production	dose-dependent increase in EPO production	42.43	18.92

Reference: patent US11680047B2, “Enhanced erythropoiesis and iron metabolism” (FibroGen, Inc., priority 2003, dated 2023)
